Measurements reported in patent US20040142961A1, “Utilization of substituted imidazo[1,2-a]-pyridine compounds in pharmaceutical formulations” (priority 2001, published 2004).

Biological target: T1, nitric oxide synthase (Rattus norvegicus, UniProt P29476)
T1 construct: the supernatant was then decanted and frozen in portions; from tissue; host or cells: rat cerebellum, homogenate supernatant after 20,000 g
Assay: HTS NO synthase assay
Type: biochemical
Details: 10 μM test compound; enzyme from rat cerebellum; [3H]arginine substrate; read-out: Inhibition of nitric oxide synthase (10 μM) in per cent
Experimental: This assay allows the determination of the percentage inhibition of NO synthase by a compound of formula I employed according to the invention by measuring the NO synthase activity under the action of the compound. In this procedure, NO synthase is mixed together with radioactively labelled arginine and the particular compound of formula I under suitable conditions. After interruption of the NO formation reaction at a given point in time, the amount of unreacted arginine is determined directly or indirectly. Comparison of this amount with the amount of arginine remaining from the mixture of NO synthase and arginine free of the test compound of formula I and under otherwise identical conditions gives the percentage inhibition of NO synthase by the test compound. This assay can be carried out as follows:
(a) incubation of NO synthase with labelled arginine as the substrate in a reaction vessel,
(b) separation of the labelled arginine from labelled citrulline formed as the product of the enzymatic reaction at a point in time at which the concentration of citrulline is increasing, and
(c) measurement of the amount of arginine separated in each case.
The separation is carried out through a filter plate membrane.
In this HTS NO synthase assay, radioactive arginine is used as the substrate. The assay volume can be chosen in the range between 25 μl and 250 μl, depending on the nature of the microtiter plate (MTP). Cofactors and coenzymes are added, depending on the enzyme source used. The incubation of the batches in this microtiter plate (assay MTP) according to step (a) is carried out at room temperature for between 5 and 60 minutes, depending on the enzyme activity (units) used. At the end of the incubation (step (a)), the plate is placed in a cell harvester equipped with an MTP which has a cation exchanger membrane as the filter base (filter MTP). All the batches of the assay MTP are transferred into this filter MTP and filtered with suction over a cation exchanger filter plate, i.e., a filter paper loaded with phosphate groups. The filter MTP is then washed with buffer or water. Using this procedure, the arginine substrate which remains is bound to the cation exchanger, while the radioactive citrulline formed enzymatically is washed out quantitatively. After drying of the filter MTP and addition of scintillation liquid, the bound arginine can be counted on a scintillation counter. An NO synthase reaction which has not been inhibited is reflected in a low radioactivity. An inhibited enzyme reaction means that the radioactive arginine has not been reacted. That is to say, a high radioactivity is found on the filter. […]
The plate was then dried for 1 hour at 60° C. in a drying cabinet. […] After a waiting time of 1 hour, the plate was measured on a β-counter.

Row | SMILES | inhibition at 10 µM
1 | COc1ccc(-c2cn3ccc(C)cc3n2)cc1 [Example 1, 2-(4-Methoxy-phenyl)-7-methyl-imidazo[1,2-a]pyridine] | 39%
2 | Cc1ccn2cc(C)nc2c1 [Example 2, 2,7-Dimethyl-imidazo[1,2-a]pyridine] | 68%
3 | Cc1ccn2ccnc2c1 [Example 3, 7-Methyl-imidazo[1,2-a]pyridine] | 53%
4 | Cc1ccn2cc(C(C)(C)C)nc2c1 [Example 4, 2-tert-Butyl-7-methyl-imidazo[1,2-a]pyridine] | 89%
